Reference: patent publication US20080161232A1, “C5a Receptor Antagonist” (JERINI AG, priority 2005, published 2008)
Starred links: 1 amine or outer side, 2 acyl side, 3 side chain; linkers in the order of their positions; H or OH if unused. Positions of bridges follow the written chain, without caps; N, C: chain ends. Non-standard residues stand in square brackets, D forms with d. Residues, ends and D or L forms follow the SMILES beside them. *: point of attachment. Ala(piperidin-4-yl) = O=C([C@H](CC1CCN([*:3])CC1)N[*:1])[*:2]; Ala(1-amidino-4-piperidyl) = N=C(N)N1CCC(C[C@H](N)C(=O)O)CC1; Phe(4-tBu) = CC(C)(C)c1ccc(C[C@H](N)C(=O)O)cc1; Phe(3-F) = N[C@@H](Cc1cccc(F)c1)C(=O)O; Phe(4-F) = N[C@@H](Cc1ccc(F)cc1)C(=O)O; Phe(4-Me) = Cc1ccc(C[C@H](N)C(=O)O)cc1; X11 = N=C(N)N[C@@H](Cc1ccccc1)C(=O)*; Bta = N[C@@H](Cc1csc2ccccc12)C(=O)O; d(hLeu) = CC(C)CC[C@@H](N)C(=O)O; 2Thi = N[C@@H](Cc1cccs1)C(=O)O; dCha = N[C@H](CC1CCCCC1)C(=O)O; Nle = CCCC[C@H](N)C(=O)O; Orn = NCCC[C@H](N)C(=O)O; Aze = O=C(O)[C@@H]1CCN1; Dab = NCC[C@H](N)C(=O)O; NBuGly = CCCCNCC(=O)O

What follows are compounds tested against T1, human C5aR(CD88) (Homo sapiens, UniProt P21730) (assay: Determination of the IC50 value in an enzyme release assay (functional assay, antagonistic activity)). Settings: antagonistic activity; IC50 group in enzyme release assay, RBL cells expressing human C5aR(CD88); read-out: activity (group).
T1 construct: expressed in transfected cells; host or cells: rat basophilic leukemia cells (RBL)
T1 sequence (P21730 1-350): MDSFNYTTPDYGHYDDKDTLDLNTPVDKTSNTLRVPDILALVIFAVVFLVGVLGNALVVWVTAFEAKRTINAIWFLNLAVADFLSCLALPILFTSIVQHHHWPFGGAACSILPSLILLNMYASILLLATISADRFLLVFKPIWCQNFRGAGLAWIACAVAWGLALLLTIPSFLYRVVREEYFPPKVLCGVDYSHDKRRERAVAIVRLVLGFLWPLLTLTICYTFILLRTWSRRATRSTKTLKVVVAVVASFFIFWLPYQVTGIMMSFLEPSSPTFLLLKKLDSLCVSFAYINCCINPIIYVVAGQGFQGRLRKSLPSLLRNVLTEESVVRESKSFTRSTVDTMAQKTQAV
Format: cell-based

Row | SMILES | IC50 [nM]
1 | CC(=O)N[C@@H](Cc1ccccc1)C(=O)N[C@@H](CCCN)C(=O)N1CCC[C@H]1C(=O)N[C@H](CC1CCCCC1)C(=O)N[C@@H](Cc1c[nH]c2ccccc12)C(=O)N[C@@H](Cc1ccc(C(C)(C)C)cc1)C(N)=O [Compound 68, Ac-Phe-Orn-Pro-cha-Trp-Eap-NH2] (Ac-F[Orn]P[dCha]W[Phe(4-tBu)]-NH2) | 200 to 2000
2 | CCCC[C@@H]1NC(=O)[C@H](Cc2ccc(F)cc2)NC(=O)[C@@H](CCC(C)C)NC(=O)[C@@H]2CCCN2C(=O)[C@@H](NC(=O)[C@H](Cc2ccccc2)NC(=N)N)CCCNC1=O [Compound 338, Fhu-Phe-[Orn-Pro-hle-Pff-Nle]] (X11-[Orn]P[d(hLeu)][Phe(4-F)][Nle]; lactam 1-C) | 50 to 200
3 | CC(=O)N[C@@H](Cc1ccccc1)C(=O)N[C@@H](CCCN)C(=O)N1CCC[C@H]1C(=O)N[C@H](CC1CCCCC1)C(=O)N[C@@H](Cc1c[nH]c2ccccc12)C(=O)N[C@@H](Cc1cccs1)C(N)=O [Compound 80, Ac-Phe-Orn-Pro-cha-Trp-Thi-NH2] (Ac-F[Orn]P[dCha]W[2Thi]-NH2) | 50 to 200
4 | CCCC[C@@H]1NC(=O)[C@H](Cc2c[nH]c3ccccc23)NC(=O)[C@@H](CC2CCCCC2)NC(=O)[C@@H]2CCN2C(=O)[C@@H](NC(=O)[C@H](Cc2ccccc2)NC(C)=O)CCCNC1=O [Compound 174, Ac-Phe-[Orn-Aze-cha-Trp-Nle]] (Ac-F[Orn][Aze][dCha]W[Nle]; lactam 2-C) | 50 to 200
5 | CC(=O)N[C@@H](Cc1ccccc1)C(=O)N[C@@H](CCCN)C(=O)N1CCC[C@H]1C(=O)N[C@H](CCC(C)C)C(=O)N[C@@H](Cc1cccc(F)c1)C(=O)N[C@@H](Cc1ccccc1)C(N)=O [Compound 292, Ac-Phe-Orn-Pro-hle-Mff-Phe-NH2] (Ac-F[Orn]P[d(hLeu)][Phe(3-F)]F-NH2) | 50 to 200
6 | CC(=O)N[C@@H](Cc1ccccc1)C(=O)N[C@H]1CCCNC(=O)[C@H](Cc2ccc(C)cc2)NC(=O)[C@H](Cc2c[nH]c3ccccc23)NC(=O)[C@@H](CC2CCCCC2)NC(=O)[C@@H]2CCCN2C1=O [Compound 36, Ac-Phe-[Orn-Pro-cha-Trp-Pmf]] (Ac-F[Orn]P[dCha]W[Phe(4-Me)]; lactam 2-C) | 20 to 50
7 | CC(=O)N[C@@H](Cc1ccccc1)C(=O)N[C@@H](CCCN)C(=O)N1CC[C@H]1C(=O)N[C@H](CC1CCCCC1)C(=O)N[C@@H](Cc1ccc(F)cc1)C(=O)N[C@@H](Cc1ccccc1)C(N)=O [Compound 99, Ac-Phe-Orn-Aze-cha-Pff-Phe-NH2] (Ac-F[Orn][Aze][dCha][Phe(4-F)]F-NH2) | 50 to 200
8 | CC(=O)N[C@@H](Cc1ccccc1)C(=O)N[C@H]1CCCNC(=O)[C@H](CC2CCNCC2)NC(=O)[C@H](Cc2c[nH]c3ccccc23)NC(=O)[C@@H](CC2CCCCC2)NC(=O)[C@@H]2CCCN2C1=O [compound 27] (Ac-F[Orn]P[dCha]W[Ala(piperidin-4-yl)]; lactam 2-C) | > 2000
9 | CC(=O)N[C@@H](Cc1cccc(F)c1)C(=O)N[C@@H](CCCN)C(=O)N1CCC[C@H]1C(=O)N[C@H](CC1CCCCC1)C(=O)N[C@@H](Cc1csc2ccccc12)C(=O)N[C@@H](Cc1ccccc1)C(N)=O [Compound 161, Ac-Mff-Orn-Pro-cha-Bta-Phe-NH2] (Ac-[Phe(3-F)][Orn]P[dCha][Bta]F-NH2) | 50 to 200
10 | CCCCN(CC(=O)N1CCC[C@H]1C(=O)N[C@H](CC1CCCCC1)C(=O)N[C@@H](Cc1c[nH]c2ccccc12)C(=O)N[C@@H](Cc1ccccc1)C(N)=O)C(=O)[C@H](Cc1ccccc1)NC(C)=O [Compound 148, Ac-Phe-N(nBu)-CH2—CO-Pro-cha-Trp-Phe-NH2] (Ac-F[NBuGly]P[dCha]WF-NH2) | 200 to 2000
11 | CC(=O)N[C@@H](Cc1ccccc1)C(=O)N[C@H]1CCCNC(=O)[C@H](CC2CCN(C(=N)N)CC2)NC(=O)[C@H](Cc2c[nH]c3ccccc23)NC(=O)[C@@H](CC2CCCCC2)NC(=O)[C@@H]2CCCN2C1=O [compound 30] (Ac-F[Orn]P[dCha]W[Ala(1-amidino-4-piperidyl)]; lactam 2-C) | > 2000
12 | CC(=O)N[C@@H](Cc1ccccc1)C(=O)N[C@H]1CCCNC(=O)[C@H](CCN)NC(=O)[C@H](Cc2c[nH]c3ccccc23)NC(=O)[C@@H](CC2CCCCC2)NC(=O)[C@@H]2CCCN2C1=O [compound 25] (Ac-F[Orn]P[dCha]W[Dab]; lactam 2-C) | 50 to 200
13 | CC(=O)N[C@@H](Cc1ccccc1)C(=O)N[C@@H](CCCN)C(=O)N1CC[C@H]1C(=O)N[C@H](CCC(C)C)C(=O)N[C@@H](Cc1csc2ccccc12)C(=O)N[C@@H](Cc1ccccc1)C(N)=O [Compound 234, Ac-Phe-Orn-Aze-hle-Bta-Phe-NH2] (Ac-F[Orn][Aze][d(hLeu)][Bta]F-NH2) | 20 to 50

Same assay, conditions: functional assay of example 11; noteworthy = IC50 less than 200 nM

Row | SMILES | inhibitory activity (in words)
14 | CC(=O)N[C@@H](Cc1ccccc1)C(=O)N[C@H]1CCCNC(=O)[C@H](Cc2ccc(C)cc2)NC(=O)[C@H](Cc2c[nH]c3ccccc23)NC(=O)[C@@H](CC2CCCCC2)NC(=O)[C@@H]2CCCN2C1=O [Compound 36, Ac-Phe-[Orn-Pro-cha-Trp-Pmf]] (Ac-F[Orn]P[dCha]W[Phe(4-Me)]; lactam 2-C) | without significant loss of activity

Same assay, conditions: functional assay of example 11; noteworthy = IC50 less than 200 nM; listed as Ac-Phe-[Orn-Pro-cha-Trp-Pmf]

Row | SMILES | inhibitory activity (in words)
15 | CC(=O)N[C@@H](Cc1ccccc1)C(=O)N[C@H]1CCCNC(=O)[C@H](Cc2ccc(C)cc2)NC(=O)[C@H](Cc2c[nH]c3ccccc23)NC(=O)[C@@H](CC2CCCCC2)NC(=O)[C@@H]2CCCN2C1=O [Compound 36, Ac-Phe-[Orn-Pro-cha-Trp-Pmf]] (Ac-F[Orn]P[dCha]W[Phe(4-Me)]; lactam 2-C) | noteworthy inhibitory activity
